Assay results taken from ChEMBL document CHEMBL1201862, “PubChem BioAssay data set” (2004).
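All cell lines were grown in 96-well plates and treated with compound for 48 hours. Here, GI50 denotes the concentration required for 50% inhibition of growth.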 The source made the active and inactive calls. Rule as the data show it: active = GI50 up to about 1.1 µM and inactive = higher.

Key:
Test in all cases: NCI-60 cell line screen, 48 h
RXF 393 = system: RXF 393
SF-268 = system: SF-268
UACC-62 = system: UACC-62
SNB-19 = system: SNB-19
KM12 = system: KM12
UACC-257 = system: UACC-257
786-0 = system: 786-0
TK-10 = system: TK-10
NCI-H226 = system: NCI-H226
SK-MEL-5 = system: SK-MEL-5
CAKI-1 = system: CAKI-1
OVCAR-5 = system: OVCAR-5
HT-29 = system: HT-29
MOLT-4 = system: MOLT-4
SK-OV-3 = system: SK-OV-3
A498 = system: A498
HL-60 = system: HL-60

Measured: GI50

CCOC(=O)C(c1ccsc1)P(=O)(OCC)OCC (stereo not given)
inactive: RXF 393 13.1 µM | SF-268 23.2 µM | UACC-62 8.22 µM | SNB-19 21.5 µM | KM12 13.4 µM | UACC-257 15.4 µM | 786-0 16.3 µM | TK-10 25.4 µM | NCI-H226 18.4 µM | SK-MEL-5 15.7 µM | CAKI-1 14.1 µM | OVCAR-5 23.1 µM | HT-29 15.9 µM | MOLT-4 > 100 µM | SK-OV-3 23 µM

COC(=O)CCC(=O)NC1C2CC3CC(C2)CC1C3 (stereo not given)
inactive: RXF 393 > 100 µM | SF-268 > 100 µM | A498 > 100 µM | UACC-62 > 100 µM | SNB-19 > 100 µM | HL-60 > 100 µM | KM12 > 100 µM | UACC-257 > 100 µM | 786-0 > 100 µM | TK-10 > 100 µM | SK-MEL-5 > 100 µM | CAKI-1 > 100 µM | OVCAR-5 > 100 µM | HT-29 > 100 µM | MOLT-4 > 100 µM | SK-OV-3 > 100 µM

Clc1ccc(-c2nnc3c4nnc(-c5ccc(Cl)cc5Cl)n4c4ccccc4n23)c(Cl)c1
inactive: RXF 393 > 100 µM | SF-268 > 100 µM | A498 > 100 µM | UACC-62 > 100 µM | SNB-19 63.5 µM | KM12 > 100 µM | UACC-257 > 100 µM | 786-0 82.4 µM | TK-10 > 100 µM | SK-MEL-5 > 100 µM | CAKI-1 > 100 µM | OVCAR-5 > 100 µM | HT-29 > 100 µM | MOLT-4 > 100 µM | SK-OV-3 > 100 µM

Cc1c2ccccc2cc2ccc3oc([N+](=O)[O-])cc3c12
inactive: RXF 393 > 100 µM | SF-268 > 100 µM | A498 5.6 µM | UACC-62 > 100 µM | SNB-19 > 100 µM | HL-60 3.93 µM | KM12 > 100 µM | UACC-257 > 100 µM | 786-0 > 100 µM | TK-10 > 100 µM | SK-MEL-5 3.18 µM | CAKI-1 > 100 µM | OVCAR-5 > 100 µM | HT-29 > 100 µM | MOLT-4 > 100 µM | SK-OV-3 > 100 µM

CC(C)=CCC/C(C)=C/Cc1c(O)c(C)cc2c1[nH]c1cc(O)ccc12
inactive: RXF 393 > 25 µM | SF-268 > 25 µM | UACC-62 > 25 µM | SNB-19 > 25 µM | HL-60 > 25 µM | KM12 > 25 µM | 786-0 > 25 µM | TK-10 > 25 µM | NCI-H226 > 25 µM | SK-MEL-5 > 25 µM | OVCAR-5 > 25 µM | HT-29 > 25 µM | MOLT-4 > 25 µM | SK-OV-3 > 25 µM

N#CC(C(=O)C(=O)Nc1ccc(Cl)cc1)c1ccccc1 (stereo not given)
inactive: RXF 393 > 100 µM | SF-268 > 100 µM | A498 > 100 µM | UACC-62 22.6 µM | SNB-19 > 100 µM | HL-60 > 100 µM | KM12 > 100 µM | UACC-257 > 100 µM | 786-0 > 100 µM | TK-10 > 100 µM | NCI-H226 > 100 µM | SK-MEL-5 > 100 µM | CAKI-1 > 100 µM | OVCAR-5 > 100 µM | HT-29 > 100 µM | MOLT-4 > 100 µM | SK-OV-3 > 100 µM

COc1ccc(/C=C2\N=C(c3ccccc3)OC2=O)c(OCc2ccccc2)c1
inactive: SF-268 54.2 µM | A498 16.3 µM | UACC-62 19.7 µM | SNB-19 28.4 µM | HL-60 40.4 µM | KM12 33 µM | UACC-257 > 10 µM | 786-0 20.1 µM | NCI-H226 53.2 µM | SK-MEL-5 19.8 µM | CAKI-1 85.1 µM | OVCAR-5 > 100 µM | MOLT-4 14.1 µM

O=C(Cc1nc2ccccc2o1)C(=O)Nc1cccc(Cl)c1
inactive: RXF 393 > 100 µM | SF-268 > 100 µM | A498 > 100 µM | UACC-62 > 100 µM | SNB-19 > 100 µM | HL-60 > 100 µM | KM12 > 100 µM | UACC-257 > 100 µM | 786-0 > 100 µM | TK-10 > 100 µM | NCI-H226 > 100 µM | CAKI-1 > 100 µM | HT-29 > 100 µM | MOLT-4 > 100 µM | SK-OV-3 > 100 µM

CN(C)CCCn1cnc2ncccc2c1=O
inactive: RXF 393 > 100 µM | SF-268 > 100 µM | UACC-62 > 100 µM | SNB-19 > 100 µM | KM12 > 100 µM | 786-0 > 100 µM | TK-10 > 100 µM | NCI-H226 > 100 µM | SK-MEL-5 > 100 µM | CAKI-1 > 100 µM | OVCAR-5 > 100 µM | HT-29 > 100 µM | MOLT-4 > 100 µM | SK-OV-3 > 100 µM
